In patent US20220332708A1 (Cytokinetics, Inc., priority 2021, published 2022) one finds AC1.4 data, which are given here for 30 compounds.

Structures are written as SMILES.

The assay has as its system Bovine cardiac myofibrils. As to the kind of experiment: Dose-dependent myofibril ATPase modulation (calcium-buffered, pyruvate kinase and lactate dehydrogenase-coupled ATPase assay at pCa25). Particulars: concentration at which ATPase activity was 1.4-fold higher than the bottom of the dose curve, mean of a minimum of two independent tests. Format: biochemical. Here is the method: In Vitro Model of Dose-Dependent Myofibril ATPase Modulation
Dose responses were measured using a calcium-buffered, pyruvate kinase and lactate dehydrogenase-coupled ATPase assay containing the following reagents (concentrations expressed are final assay concentrations): Potassium PIPES (12 mM), MgCl2 (2 mM), ATP (1 mM), DTT (1 mM), BSA (0.1 mg/ml), NADH (0.5 mM), PEP (1.5 mM), pyruvate kinase (4 U/ml), lactate dehydrogenase (8 U/ml), and antifoam (90 ppm). The pH was adjusted to 6.80 at 22° C. by addition of potassium hydroxide. Calcium levels were controlled by a buffering system containing 0.6 mM EGTA and varying concentrations of calcium, to achieve a free calcium concentration of 1×10^−4 M to 1×10^−8 M.
Bovine cardiac myofibrils were obtained by homogenizing the appropriate tissue in the presence of detergent. Such treatment removes membranes and majority of soluble cytoplasmic proteins but leaves intact cardiac sarcomeric acto-myosin apparatus. Concentrations of myofibrils were adjusted to achieve the necessary rate of ATP hydrolysis (typically 0.25-1.0 mg/ml).
Chemical entity dose responses were measured at the calcium concentration corresponding to 25% of maximal ATPase activity (pCa25), so a preliminary experiment was performed to test the response of the ATPase activity to free calcium concentrations in the range of 1×10^−4 M to 1×10^−8 M. Subsequently, the assay mixture was adjusted to the pCa25. Assays were performed by first preparing a dilution series of test chemical entity, each with an assay mixture containing potassium Pipes, MgCl2, BSA, DTT, pyruvate kinase, lactate dehydrogenase, myofibrils, antifoam, EGTA, CaCl2), and water. The assay was started by adding an equal volume of solution containing potassium Pipes, MgCl2, BSA, DTT, ATP, NADH, PEP, antifoam, and water. ATP hydrolysis was monitored by absorbance at 340 nm. The resulting dose response curve was fit by the 4 parameter equation y=Bottom+((Top−Bottom)/(1+((EC50/X)^Hill))). […] AC1.4 values reported in the table below are mean values based on a minimum of two independent tests.
Consider `CNc1ccc(S(=O)(=O)Nc2ccc(N3C[C@H](C)C[C@@H](C)C3)nc2)cc1C#N` (racemic) [Compound 1, 3-Cyano-N-(6-(trans-3,5-dimethylpiperidin-1-yl)pyridin-3-yl)-4-(methylamino) benzenesulfonamide], for which the AC1.4 came out at 14.3998 µM.

Consider `C[C@@H]1C[C@@H](C)CN(c2ccc(NS(=O)(=O)c3ccc(N(C)C)c(C#N)c3)cn2)C1` (racemic) [Compound 2, 3-Cyano-4-(dimethylamino)-N-(6-(trans-3,5-dimethylpiperidin-l-yl)pyridin-3-yl)benzenesulfonamide], for which the AC1.4 stood at 12.21 µM.

With `Cc1nc2cc(C)c(S(=O)(=O)Nc3ccc(N4C[C@@H](C)C[C@H](C)C4)nc3)cc2c(=O)[nH]1` (racemic) [Compound 9, N-(6-((trans)-3,5-dimethylpiperidin-1-yl)pyridin-3-yl)-2,7-dimethyl-4-oxo-3,4-dihydroquinazoline-6-sulfonamide], the AC1.4 came to 9.2363 µM.

As to `Cc1[nH]c(S(=O)(=O)N[C@@H]2Cc3cc(Cl)c(Cl)cc3[C@H]2O)cc1C(=O)N1CC(C)(C#N)C1` (racemic) [Compound 99], the AC1.4 is 0.2635 µM.

Take `CNc1ccc(S(=O)(=O)Nc2ccc(N3C[C@H](C)C[C@@H](C)C3)nc2)cc1C(N)=O` (relative stereo) [Compound 3, 5-(N-(6-(trans-3,5-dimethylpiperidin-1-yl)pyridin-3-yl)sulfamoyl)-2-(methylamino)benzamide]: the AC1.4 was determined as 11.94 µM.

Regarding `CNc1cc2c(cc1S(=O)(=O)N[C@H]1CC[C@@H](Nc3ccccc3)C1)c(=O)[nH]c(=O)n2C` (relative stereo) [Compound 19, 1-Methyl-7-(methylamino)-2,4-dioxo-N-((cis)-3-(phenylamino)cyclopentyl)-1,2,3,4-tetrahydroquinazoline-6-sulfonamide], the AC1.4 was 0.6379 µM.

For `CNc1cc2nc(C)[nH]c(=O)c2cc1S(=O)(=O)N[C@@H]1CCc2c([nH]c3ccccc23)C1` (single isomer, unassigned) [Compound 33], the AC1.4 worked out at 0.0762 µM.

Regarding `Cc1[nH]c(S(=O)(=O)N[C@]2(Cc3ccc(Cl)cc3)CCOC2)cc1C(=O)N1CC(C)(C#N)C1` (single isomer, unassigned) [Compound 63], the AC1.4 is 0.081 µM.

Turning to `Cc1[nH]c(S(=O)(=O)N[C@]2(Cc3ccc(Cl)cc3)CCOC2)cc1C(=O)NCC(F)F` (single isomer, unassigned) [Compound 65], the AC1.4 turned out to be 3.2638 µM.

Take `Cc1[nH]c(S(=O)(=O)N[C@@H]2Cc3ccc(C(F)(F)F)cc3C2)cc1C(=O)N1CC(C)(C#N)C1` (single isomer, unassigned) [Compound 76]: the AC1.4 was found to be 0.1121 µM.

Take `Cc1[nH]c(S(=O)(=O)N[C@@H]2Cc3cc(F)c(Cl)cc3C2)cc1C(=O)N1CC(C)(C#N)C1` (single isomer, unassigned) [Compound 83]: the AC1.4 was found to be 0.06985 µM.

Take `Cc1[nH]c(S(=O)(=O)N[C@H]2Cc3cc(F)c(Cl)cc3C2)cc1C(=O)N1CC(C)(C#N)C1` (single isomer, unassigned) [Compound 84]: the AC1.4 was 0.303 µM.

Turning to `Cc1[nH]c(S(=O)(=O)N[C@H]2Cc3cc(Cl)c(Cl)cc3[C@@]2(C)O)cc1C(=O)N1CC(C)(C#N)C1` (single isomer, unassigned) [Compound 92], the AC1.4 is 0.6294 µM.

Consider `Cc1[nH]c(S(=O)(=O)N[C@H]2COc3cc(Cl)ccc3C2)cc1C(=O)N1CC(C)(C#N)C1` (stereo in doubt) [Compound 16, N-(7-chlorochroman-3-yl)-4-(3-cyano-3-methylazetidine-1-carbonyl)-5-methyl-1H-pyrrole-2-sulfonamide], for which the AC1.4 amounted to 8.4932 µM.

On to `CNc1cc2nc(C)[nH]c(=O)c2cc1S(=O)(=O)Nc1ccc(-c2ccccc2)cc1` [Compound 4, N-([1,1′-biphenyl]-4-yl)-2-methyl-7-(methylamino)-4-oxo-3,4-dihydroquinazoline-6-sulfonamide], for which the AC1.4 was found to be 0.1832 µM.

Turning to `Cc1nc2ccc(S(=O)(=O)Nc3ccc(N4C[C@H](C)C[C@@H](C)C4)nc3)cc2c(=O)[nH]1` [Compound 5, N-(6-((3R,5R)-3,5-dimethylpiperidin-1-yl)pyridin-3-yl)-2-methyl-4-oxo-3,4-dihydroquinazoline-6-sulfonamide], the AC1.4 was found to be 4.4808 µM.

For the compound `Cc1nc2cc(OCCN3CCOCC3)c(S(=O)(=O)Nc3ccc(N4C[C@H](C)C[C@@H](C)C4)nc3)cc2c(=O)[nH]1` [Compound 6, N-(6-((3R,5R)-3,5-dimethylpiperidin-1-yl)pyridin-3-yl)-2-methyl-7-(2-morpholinoethoxy)-4-oxo-3,4-dihydroquinazoline-6-sulfonamide], the AC1.4 was 0.7385 µM.

Consider `COc1cc2nc(C)[nH]c(=O)c2cc1S(=O)(=O)Nc1ccc(N2C[C@H](C)C[C@@H](C)C2)nc1` [Compound 7, N-(6-((3R,5R)-3,5-dimethylpiperidin-1-yl)pyridin-3-yl)-7-methoxy-2-methyl-4-oxo-3,4-dihydroquinazoline-6-sulfonamide], for which the AC1.4 turned out to be 1.3592 µM.

As for `CNc1cc2nc(C)[nH]c(=O)c2cc1S(=O)(=O)Nc1ccc(N2C[C@H](C)C[C@@H](C)C2)nc1` [Compound 8, N-(6-((3R,5R)-3,5-dimethylpiperidin-1-yl)pyridin-3-yl)-2-methyl-7-(methylamino)-4-oxo-3,4-dihydroquinazoline-6-sulfonamide], the AC1.4 was found to be 0.6695 µM.

As to `CNc1cc2c(cc1S(=O)(=O)NC1CCN(c3ccccc3)CC1)c(=O)[nH]c(=O)n2C` [Compound 10, 1-Methyl-7-(methylamino)-2,4-dioxo-N-(1-phenylpiperidin-4-yl)-1,2,3,4-tetrahydroquinazoline-6-sulfonamide], the AC1.4 amounted to 2.8354 µM.

As to `CNc1cc2nc(C)[nH]c(=O)c2cc1S(=O)(=O)NC1CCN(c2cccc(F)c2)CC1` [Compound 11, N-(1-(3-fluorophenyl)piperidin-4-yl)-2-methyl-7-(methylamino)-4-oxo-3,4-dihydroquinazoline-6-sulfonamide], the AC1.4 came to 5.252 µM.

As for `CNc1cc2c(cc1S(=O)(=O)N[C@H]1CC[C@H](c3ccccc3)CC1)c(=O)[nH]c(=O)n2C` [Compound 12], the AC1.4 worked out at 1.6528 µM.

On to `CNc1cc2c(cc1S(=O)(=O)NCCCNc1ccccc1)c(=O)[nH]c(=O)n2C` [Compound 13, 1-Methyl-7-(methylamino)-2,4-dioxo-N-(3-(phenylamino)propyl)-1,2,3,4-tetrahydroquinazoline-6-sulfonamide], for which the AC1.4 is 9.783 µM.

In the case of `CNc1cc2c(cc1S(=O)(=O)N[C@H]1C[C@@H](Nc3cccc(F)c3)C1)c(=O)[nH]c(=O)n2C` [Compound 14, N-((cis)-3-((3-fluorophenyl)amino)cyclobutyl)-1-methyl-7-(methylamino)-2,4-dioxo-1,2,3,4-tetrahydroquinazoline-6-sulfonamide], the AC1.4 worked out at 0.2006 µM.

As to `CNc1cc2nc(C)[nH]c(=O)c2cc1S(=O)(=O)N[C@H]1C[C@@H](Nc2cccc(F)c2)C1` [Compound 15, N-((cis)-3-((3-fluorophenyl)amino)cyclobutyl)-2-methyl-7-(methylamino)-4-oxo-3,4-dihydroquinazoline-6-sulfonamide], the AC1.4 turned out to be 1.019 µM.

With `CNc1cc2c(cc1S(=O)(=O)N[C@H]1C[C@@H](Nc3ccccc3)C1)c(=O)[nH]c(=O)n2C` [Compound 17], the AC1.4 came out at 0.6931 µM.

Take `CNc1cc2c(cc1S(=O)(=O)N[C@H]1C[C@@H](Nc3ccccc3F)C1)c(=O)[nH]c(=O)n2C` [Compound 18, N-((cis)-3-((2-fluorophenyl)amino)cyclobutyl)-1-methyl-7-(methylamino)-2,4-dioxo-1,2,3,4-tetrahydroquinazoline-6-sulfonamide]: the AC1.4 worked out at 0.8832 µM.

Regarding `CNc1cc2c(cc1S(=O)(=O)NC1CC(c3ccccc3)C1)c(=O)[nH]c(=O)n2C` (stereo not drawn) [Compound 20, 1-Methyl-7-(methylamino)-2,4-dioxo-N-(3-phenylcyclobutyl)-1,2,3,4-tetrahydroquinazoline-6-sulfonamide], the AC1.4 is 3.9537 µM.

Take `CNc1cc2c(cc1S(=O)(=O)NCCc1cc3ccccc3[nH]1)c(=O)[nH]c(=O)n2C` [Compound 21]: the AC1.4 came out at 4.8236 µM.

For the compound `CNc1cc2c(cc1S(=O)(=O)N[C@H]1[C@@H]3CN(c4cccc(F)c4)C[C@@H]31)c(=O)[nH]c(=O)n2C` [Compound 22, N-((1R,5S,6s)-3-(3-Fluorophenyl)-3-azabicyclo[3.1.0]hexan-6-yl)-1-methyl-7-(methylamino)-2,4-dioxo-1,2,3,4-tetrahydroquinazoline-6-sulfonamide], the AC1.4 came to 0.4479 µM.
